Results reported in PubChem BioAssay (NCI).
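Cells were grown in 96-well plates and exposed to each compound for 48 hours at five concentrations; endpoints were interpolated linearly between bracketing concentrations, or set to the highest concentration if not reached. TGI: concentration producing complete growth inhibition.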

Assays:
Experiment in all cases: NCI tumour cell line growth inhibition, 48 h
[1] = test system: PC-3 prostate
[2] = test system: MCF7 breast
[3] = test system: SW-620 colon
[4] = test system: NCI-H522 lung
[5] = test system: NCI-H226 lung
[6] = test system: SNB-19 CNS
[7] = test system: COLO 205 colon
[8] = test system: SK-MEL-2 melanoma
[9] = test system: HOP-92 NSCLC
[10] = test system: U251 CNS
[11] = test system: A498 renal
[12] = test system: K-562 leukemia
[13] = test system: SF-268 CNS
[14] = test system: HCT-116 colon
[15] = test system: UACC-257 melanoma
[16] = test system: MDA-MB-231 breast
[17] = test system: RXF 393 renal
[18] = test system: MOLT-4 leukemia
[19] = test system: KM12 colon
[20] = test system: MDA-N

| SMILES | TGI [1] [µM] | TGI [2] [µM] | TGI [3] [µM] | TGI [4] [µM] | TGI [5] [µM] | TGI [6] [µM] | TGI [7] [µM] | TGI [8] [µM] | TGI [9] [µM] | TGI [10] [µM] | TGI [11] [µM] | TGI [12] [µM] | TGI [13] [µM] | TGI [14] [µM] | TGI [15] [µM] | TGI [16] [µM] | TGI [17] [µM] | TGI [18] [µM] | TGI [19] [µM] | TGI [20] [µM] |
| --- | --- | --- | --- | --- | --- | --- | --- | --- | --- | --- | --- | --- | --- | --- | --- | --- | --- | --- | --- | --- |
| C[P+](c1ccccc1)(c1ccc(Cl)cc1)c1ccc(Cl)cc1 | 70.6 | > 100 | > 100 | 33.1 | 88.6 | 59.1 | 22 | 46.3 | 40.3 | 39.3 | 98.3 | 74.4 | > 100 | 44.9 | 32.6 | 82 | > 100 |  |  |  |
| COc1ccc(OC)c(/C=C2\CCc3ccccc3C2=O)c1 |  |  | 15.4 | 4.25 | 18.6 | 28.9 | 13.5 | 12.8 | 9.32 | 14.4 | 19.7 | 10.8 | 22.2 | 20.6 |  |  | 6.07 | 19.8 | 12.5 |  |
| C(=C\C(Sc1ccccc1)c1ccccc1)/NNC1=NC(c2ccccc2)C(c2ccccc2)=NN1 (stereo unspecified) |  |  | > 100 | > 100 | > 100 | > 100 | > 100 | > 100 | 80.7 | > 100 |  | 38 | > 100 | > 100 | > 100 |  |  | 77.9 | > 100 |  |
| CC(C)OC/N=C(/N)NC#N |  |  | 45.2 | > 100 | > 100 | > 100 | > 100 | > 100 | > 100 | > 100 | > 100 | > 100 | > 100 | > 100 | > 100 |  | > 100 | > 100 | > 100 |  |
| O=C(CC(C(=O)c1ccsc1)c1ccsc1)c1ccsc1 (stereo unspecified) | > 100 | > 100 | > 100 |  | > 100 | > 100 | > 100 | > 100 |  | > 100 | > 100 | > 100 | > 100 | > 100 | > 100 | > 100 |  | > 100 | > 100 |  |
| CC1=NN2C(c3ccc([N+](=O)[O-])cc3)=CSC2=NC(C)(C)C1 |  |  | > 100 | > 100 | > 100 | > 100 | > 100 | > 100 | > 100 | > 100 | > 100 | > 100 | > 100 | > 100 | > 100 |  | > 100 | > 100 | > 100 |  |
| COc1cc([C@@H]2c3cc4c(cc3[C@@H](OC(=O)c3cccc(N)c3)C3COC(=O)[C@@H]32)OCO4)cc(OC)c1O (stereo partly specified) |  |  | > 100 |  | 6.09 | > 100 | > 45.6 | 73.3 |  | 22.9 | 16.6 | > 100 | > 61.1 | > 100 | > 77.3 |  | 83.5 | > 59.8 | > 73.5 |  |
| COc1cc2c(oc(=O)c3cc4cc([Si](C)(C)C)oc4c(OC)c32)c2cccc(O)c12 |  |  | > 100 | > 100 | > 100 | > 100 | > 100 | > 100 | > 100 | > 100 | > 100 | > 100 | > 100 | > 100 | > 100 |  | > 100 | > 100 | > 100 |  |
| O=CC1C(Cl)=Nc2nc3ccccc3n2C1c1ccccc1 (stereo unspecified) | 40.7 | 42.7 | 40.2 | 27.3 | 38.1 | > 100 | 58.9 | 27.3 | 25.5 | 33.7 | 23 | 37.3 | 37.2 | 70.5 | 58.2 | 38.6 | 30.9 |  | 51.4 |  |
| Nc1nc(Cl)c2ncn(Cc3cccc(CCl)c3)c2n1 | 26.4 | > 31 | 11.9 | 7.03 | 26.9 | 20.6 | 30.1 | 58.5 | 24.5 | 6.15 | 50.8 | > 51 | 18.9 | 4.05 | 20.7 | 27.6 | 10.5 | > 30.8 | 16 |  |
| C=CCCCN1CCCC(C)C1=S (stereo unspecified) |  |  | > 100 | > 100 | > 100 | > 100 | > 100 | > 100 | > 100 | > 100 | > 100 | > 100 | > 100 | > 100 | > 100 |  | > 100 | > 100 | > 100 |  |
| CC(C)OC(=O)[C@H]1ON2O[C@H](O[C@@H]3CCCC[C@H]3c3ccccc3)C([Si](C)(C)c3ccccc3)[C@H]3OC(=O)[C@@H]1C32 (stereo partly specified) | > 100 | > 100 | > 100 | > 100 | > 100 | > 100 | > 100 | > 100 | > 100 | > 100 | > 100 | > 100 | > 100 | > 100 | > 100 | > 100 | > 100 | > 100 | > 100 |  |
| O=C1OCC(c2ccc(Cl)cc2)=C1Cl | 67.9 | 44.6 | 61.2 | 35.9 | > 100 | > 100 | 70.4 | 64.1 | 58.9 | > 100 | > 100 | 92.6 | 70 | 28.3 | > 100 | 98.6 | 54.1 | > 100 | 36 |  |
| CC(=O)c1ccccc1NC(=O)C(=O)C(C(=O)c1ccccc1-c1ccccc1)C1OC(=O)c2ccccc21 (stereo unspecified) |  |  | 86.5 | 31 | 36.2 | 58.9 | 46.1 | 40.5 |  | 30.3 | 38.2 | > 100 |  | 32.5 | 32.3 |  | 25 | 93 | 34.3 |  |
| CN(C)c1ccc(/C=N/c2nc3cc4sc(/N=C/c5ccc(N(C)C)cc5)nc4cc3s2)cc1 | > 100 | > 100 | > 100 | > 100 | > 100 | > 100 | > 100 | > 100 | > 100 | > 100 | > 100 | > 100 | > 100 | > 100 | > 100 | > 100 |  | > 100 | > 100 |  |
| Cn1c2ccccc2c2ccc3c(c21)C(=O)C(c1ccccc1)=CC3=O |  |  |  | 40.2 | 40.7 | > 100 | > 100 | 45.3 | 56.2 | > 100 |  | > 100 | > 100 | 38.2 | > 100 |  |  | > 100 | > 100 |  |
| CC(=O)NNc1nc(C)c(C(=O)NNC(=O)C(=O)Nc2c([N+](=O)[O-])ccc(C)c2C)s1 |  |  | > 100 | > 100 | > 100 | > 100 | > 100 | > 100 | > 100 | > 100 | > 100 | > 100 | > 100 | > 100 | > 100 |  |  | > 100 | > 100 |  |
| Nc1nc(N)c2ncn(CCOC(c3ccccc3)P(=O)(O)O)c2n1 (stereo unspecified) |  |  | > 100 | > 100 | > 100 | > 100 | > 100 | > 100 |  | > 100 | > 100 |  | > 100 | > 100 | > 100 |  | > 100 | > 100 | > 100 |  |
| COCN(C)c1nc(N(C)C)nc(N(C)C)n1 |  |  | > 100 | 37 |  | > 100 | > 100 | > 100 | > 100 | > 100 | > 100 | > 100 | > 100 | > 100 | > 100 |  | > 100 | > 100 | > 100 |  |
| CC1(C)c2ccccc2N2O[C@@H]3C(=O)N(c4ccccc4)C(=O)[C@@H]3C21c1ccccc1 (stereo partly specified) |  |  | > 100 | > 100 | > 100 | > 100 | > 100 | > 100 |  |  |  | > 100 | > 100 |  | > 100 |  | > 100 | > 100 | > 100 |  |
| COC(=O)c1c(-c2cc(OC)c(OC)c(OC)c2)oc2ccccc2c1=O |  |  | > 100 | > 100 | > 100 | > 100 | > 100 | > 100 | > 100 | > 100 | > 100 | > 100 |  | > 100 | > 100 |  | > 100 | > 100 | > 100 |  |
| CCN(CC)C(=S)SCC(=O)Nc1nc2c(s1)CCCC2 |  |  | > 100 | 65.3 | > 100 | > 100 | > 100 | > 100 | > 100 | > 100 | > 100 |  | > 100 | > 100 | > 100 |  |  | > 100 | > 100 |  |
| CC1(C)Cc2c(oc3ncnc(N)c23)CS1 |  |  | > 100 | > 100 | > 100 | > 100 | > 100 | > 100 |  | > 100 |  | > 100 | > 100 | > 100 | > 100 |  |  | > 100 | > 100 |  |
| COc1ccc(OC)c(NC(=O)C(=O)CC(=O)c2sc(-n3nc(-c4ccccc4)cc3-c3ccccc3)nc2C)c1 |  |  | > 100 | > 100 | > 100 | > 100 | > 100 | > 100 |  | > 100 | > 100 | > 100 |  | > 100 | > 100 |  | > 100 | > 100 | > 100 |  |
| S=C(N/N=C/c1ccccn1)N1CC2CCC(CC2)C1 | 13 |  | 14.5 | 3.64 | 1.53 | 14.3 |  | 15.5 | 13.9 | 4.6 | 2.93 |  | 14.8 | 3.88 | < 0.039 |  | 3.19 |  | 7.76 | 13.1 |
| O=C(CSCC(=O)N/N=C\c1ccc(O)c(O)c1O)N/N=C\c1ccc(O)c(O)c1O |  | 57.4 | 12.8 | 44.4 | 53.1 | > 100 | > 100 | 84.5 | > 100 | 19.2 | > 100 |  | > 100 | 13.4 | 50 | 78.1 | > 100 | 11.9 | 37.1 |  |
| COC(=O)CC(C(C(=O)OC)C(=O)OC)N1C(=O)OC(c2ccccc2)C1c1ccccc1 (stereo unspecified) |  |  | 74.3 | > 100 | > 100 | > 100 | > 100 | > 100 | > 100 | > 100 | > 100 | > 100 | > 100 | > 100 | > 100 |  | > 100 | > 100 | > 100 |  |
| N#Cc1ccc(Oc2ccccc2)cc1C#N |  |  |  | 57.2 | > 100 | > 100 | 68.6 | > 100 | > 100 | > 100 | > 100 | > 100 | > 100 | > 100 | > 100 |  | > 100 | > 100 | > 100 |  |
| C[n+]1c2ccccc2c(CNCC(=O)O)c2ccccc21 |  |  | 2.24 | 0.307 | 15.5 | 22.2 | 2.9 | 12.6 | 10.4 | 12.5 | 7.43 | 11.1 | 1.9 | 1.3 | 23.8 |  | 6.5 | 0.811 | 11 |  |
